The assay has as its target T1, TNF (TNF-TNFR1 binding) (Homo sapiens, UniProt P01375).
T1 construct: soluble TNF and its receptor TNFR1 in sandwich ELISA; human TNF-alpha (Peprotech) is printed for the cell assays; with Tumor necrosis factor receptor superfamily member 1A
The assay is described as follows: TNF-TNFR1 sandwich ELISA, inhibition of binding. Particulars: inhibition of TNF-TNFR1 interaction. In general terms: An ELISA detects its analyte on a solid surface through an enzyme-linked reagent.

IC50 data for 1 molecule are collected here from article PMC8508374, “In Silico Identification and Evaluation of Natural Products as Potential Tumor Necrosis Factor Function Inhibitors Using Advanced Enalos Asclepios KNIME Nodes” (International Journal of Molecular Sciences, 2021).

The structures appear in SMILES notation.

T1 sequence (P01375 77-233): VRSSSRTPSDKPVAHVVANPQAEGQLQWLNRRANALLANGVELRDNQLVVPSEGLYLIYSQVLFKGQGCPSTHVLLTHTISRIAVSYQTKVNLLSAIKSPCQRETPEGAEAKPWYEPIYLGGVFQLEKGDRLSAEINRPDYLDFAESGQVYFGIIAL
T1 sequence (P19438 30-455 partner): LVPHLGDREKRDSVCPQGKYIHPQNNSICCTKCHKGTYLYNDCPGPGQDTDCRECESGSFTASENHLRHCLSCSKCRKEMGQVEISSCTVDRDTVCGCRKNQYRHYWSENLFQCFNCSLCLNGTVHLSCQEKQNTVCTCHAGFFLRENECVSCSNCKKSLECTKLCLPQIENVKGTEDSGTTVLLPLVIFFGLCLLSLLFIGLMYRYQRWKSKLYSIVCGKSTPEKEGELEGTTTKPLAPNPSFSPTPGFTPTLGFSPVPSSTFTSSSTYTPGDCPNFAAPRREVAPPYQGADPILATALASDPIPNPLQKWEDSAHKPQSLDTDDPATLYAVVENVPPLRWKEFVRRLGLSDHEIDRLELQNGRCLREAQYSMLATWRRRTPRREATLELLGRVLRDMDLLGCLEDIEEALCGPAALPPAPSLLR

Regarding `Oc1ccc([C@@H]2c3c(O)cc4c(c3C3C2c2c(c(O)cc5c2[C@H](c2cc(O)cc(O)c2)[C@@H](c2ccc(O)cc2)O5)[C@H]3c2ccccc2)[C@H](c2cc(O)cc(O)c2)[C@@H](c2ccc(O)cc2)C4)cc1` (stereo partly shown) [Nepalensinol B], the IC50 (in general, the concentration at which inhibition is half-maximal) was 90.2 ± 19 µM.
